A value given as a limit tells only on which side of the number the result lay.

In the case of `CCc1ccc2[nH]c(C(=O)O)cc2c1`, the melting point (as a rule, the temperature, or range, at which the solid turns liquid) stood at 173 °C.
Regarding `CC1(C)Oc2ccc(C#N)cc2[C@@H](NC2=CC(=O)CC2)[C@@H]1O` (relative stereo), the melting point was 174 to 176 °C.
In the case of `COc1ccc(C2=NOC(C)(c3nnc(S)n3N)C2)cc1OC1CCCC1` (stereo not drawn) it was 228 to 229 °C.
Molecule `CN(C(=O)c1ccc(-c2ccccc2)cc1)C1N(C)C(c2ccc(F)cc2)=NC1(C(F)(F)F)C(F)(F)F` (stereo not drawn) displayed a melting point of 186 to 187 °C.
`C=CCSc1ccc(Oc2ccccc2C)nn1` showed a melting point of 78 to 80 °C.
The same measure for `O=C=Nc1ccc(N2CCOCC2)cc1`: 221 to 225 °C.
In the case of `CCn1ncnc1COc1nn2c(-c3ccccc3F)nncc2c1-c1cccs1` it was 190 to 192 °C; in that of `CC(=NO)C(=O)c1ccc(NS(C)(=O)=O)c(Sc2ccc(F)cc2F)c1`, 140 to 143 °C.
`O=C1c2ccc(O)cc2CCN1CCN1CCCC1` came in with a melting point of 205 to 207 °C.
In turn, `CC1NC2(c3ccccc3)c3ccccc3C(=O)N2C1C` (stereo not drawn) returned a melting point of 162 to 164 °C.
With `CC[C@@H]1NC(=O)C[C@@]1(O)C1CC1`, the melting point lay in the range of 87 to 102 °C.
Molecule `CCOC(=O)c1nc(Cc2ccccc2[N+](=O)[O-])n[nH]1` returned a melting point of 135 to 140 °C.
The molecule `O=CCC(c1ccccc1)c1cc(Br)ccc1OCc1ccccc1` (stereo not drawn) showed a melting point of 99 to 100 °C.
The same measure for `CCN1CC(CCN2CCOCC2)N(C)c2ccccc2C1=O` (stereo not drawn): 128 to 148 °C; for `COC(=O)[C@H](Cc1c[nH]cn1)NC(=O)C(CCCCc1ccccc1)Cc1cccc2ccccc12` (stereo partly drawn): 45 to 47 °C; for `CC(=O)Oc1cc(COC(=O)c2ccccc2)cnc1C`: 57 °C.
The molecule `CC(=O)CC(=O)Nc1ccc(Nc2ccccc2)cc1` yielded a melting point of 89.5 °C.
`CSC(=S)N(C)N=Cc1ccco1` gave a melting point of 103 °C.
Consider `CC(C)c1cccc(C(C)C)c1NC(=O)N(Cc1ccc(N(C)C)cc1)c1ccc(C(C)(C)C)cc1`, for which the melting point was in the range of 154 to 155 °C.
Turning to `CCC1(C)CC(O)CC(C)(C)N1OC(C)c1ccccc1` (stereo not drawn), the melting point fell in the range of 58 to 69 °C.
`c1ccc(Nc2ccc(-c3ccc(N(c4ccccc4)c4ccccc4)cc3)cc2)cc1` displayed a melting point of 168 °C.
Take `CN1CC(c2cc[nH]n2)CC2c3cccc4[nH]cc(c34)CC21` (stereo not drawn): the melting point was 160 to 162 °C.
`COC(=O)C(=Cc1ccccc1)c1ccc2nc(-c3ccccc3)oc2c1` gave a melting point of 184 to 185 °C.
Molecule `C[C@H](c1ccccc1)n1c(O)nc2c(Cl)nc3ccccc3c21` registered a melting point of 227 to 229 °C.
Regarding `Cc1nn(C)c2c(-c3ccc(OC(F)(F)F)cc3)nc(-c3ccc(F)cc3)nc12`, the melting point was 170 to 172 °C.
As for `O=S(=O)(c1cccc2c(Cl)cccc12)N1CC2CCC(CC2)C1`, the melting point fell in the range of 105 to 106 °C.
`COC(=O)C1=C(C)NC2=C(C(=O)CN(Cc3ccccc3)C2)C1c1ccccc1C(F)(F)F` (stereo not drawn) yielded a melting point of 225 to 227 °C.
The same measure for `C[C@H]1CCCC(C)(C)[C@@H]1[C@H](O)c1ccc(C#N)c(F)c1`: 114 to 116 °C; for `CC(C)COc1c(-c2ccc(S(C)(=O)=O)c(F)c2)cnn(-c2cccc(Cl)c2)c1=O`: 180 to 183 °C.
Regarding `CCc1n[nH]c(=O)c2ccc(OC)cc12`, the melting point was in the range of 230 to 235 °C.
The same measure for `Nc1c(C(=O)c2cc(Cl)ccc2[N+](=O)[O-])[nH]c2cc(Cl)ccc12`: 233 to 234 °C.
In the case of `CNc1nc(-c2cccc(NC(=O)c3ccc(S(C)=O)cc3)c2)c2cc(OC)c(OC)cc2n1` (stereo not drawn), the melting point fell in the range of 246 to 248 °C.
On to `CC(=O)Nc1nc2c(Oc3cc(-c4ccc(C(F)(F)F)cc4I)ncn3)cccc2s1`, for which the melting point is 242 to 243 °C.
In the case of `N#Cc1cnc2cc(Cl)c([N+](=O)[O-])cc2c1Nc1ccc(Oc2ccccc2)cc1` it was 220 to 222 °C.
Regarding `O=C1c2c(cc(O)c(Cl)c2Cl)CC1(c1ccccc1)c1ccccc1`, the melting point was in the range of 207 to 213 °C.
Turning to `COc1ncccc1C(=O)N(C(C)C)C(C)C`, the melting point worked out at 109 °C.
The same measure for `COc1ccnc(CCc2nc3cc(-c4ccc(S(=O)(=O)N(CCO)CCO)cc4)cnc3[nH]2)c1`: 127 to 128 °C.
In turn, `Cc1c(C(O)C2CCc3c(c4ccccc4n3C)C2=O)ncn1C(c1ccccc1)(c1ccccc1)c1ccccc1` (stereo not drawn) had a melting point of 141 to 147 °C.
In turn, `COc1cccc(-c2nn(Cc3ccccc3)c3ncnc(O)c23)c1` came in with a melting point of 183 to 185 °C.
Consider `COc1ccc(COC(=O)CC(=O)Oc2cc(-c3cn4c(n3)sc3ccccc34)ccc2Cl)cc1`, for which the melting point is 113 to 115 °C.
In the case of `O=c1[nH]c(N2CCNC(CO)C2)cc2ccccc12` (stereo not drawn) it was more than 120 °C; in that of `CN(C)CCCOc1ccc(C=CC(=O)N2CCc3c([nH]c4ccccc34)C2c2ccc3c(c2)CCO3)cc1` (stereo not drawn), 186 °C.
`CC(=O)OC1CC(CO)OC1n1ccc(=O)[nH]c1=O` (stereo not drawn) returned a melting point of 148 to 149 °C.
With `COC(=O)CCCCc1ccc(CN2CCN(c3ccncc3)CC2)cc1`, the melting point fell in the range of 53 to 54 °C.
As for `COc1ccc(N2C(=S)N(c3ccc(Oc4ccccc4)cc3)C(=O)C2C)cc1` (stereo not drawn), the melting point lay within 208 to 210 °C.
As for `CCOC(=O)CC(O)CC(O)C=Cc1c(-c2ccccc2)ccnc1C` (stereo not drawn), the melting point was in the range of 85 to 86 °C.
The molecule `CNCc1ccc(-c2ccc(OC)c(Br)c2)cc1` showed a melting point of 65 to 68 °C.
For `CC(=O)Oc1ccc(C(=O)O)c(C)c1`, the melting point was 136 to 138 °C.
As for `COc1ccc(-c2nc3nccnc3[nH]2)c(OC)c1`, the melting point is 210 to 215 °C.
The same measure for `OC1(c2nccnc2Cl)CN2CCC1CC2` (stereo not drawn): 215 to 216 °C; for `CCOC(=O)c1c(C)nn2c(-c3cccnc3)ccnc12`: 145 to 146 °C.
With `CCOC(=O)C(C)COc1ccccc1-c1cc(C#N)c(=O)[nH]c1C` (stereo not drawn), the melting point lay within 167 to 170 °C.
Consider `O=C(Nc1ccc(C(F)(F)F)cc1)Nc1nc(OCC(F)(F)F)cc(OCC(F)(F)F)n1`, for which the melting point lay in the range of 167 to 168 °C.
Consider `COC(=O)c1ccc(NC2CC2)c(S(N)(=O)=O)c1`, for which the melting point lay in the range of 158 to 161 °C.
With `Cc1cc(CSCCNC(=C[N+](=O)[O-])NCC(O)c2cccc(Br)c2)sc1CN(C)C` (stereo not drawn), the melting point fell in the range of 104 to 106 °C.
Molecule `CCOC(=O)c1nc2ccc(F)cc2n(CC)c1=O` showed a melting point of 99 to 102 °C.
The molecule `Oc1c(-c2ccccc2)cc(Cn2c(=S)sc3ccccc32)cc1-c1ccccc1` returned a melting point of 145 to 146 °C.
`CC(=O)N1CCN(CCCOc2ccc(NC(=O)c3cc(F)cc(N4CCCCC4)c3)c3ccccc23)CC1` came in with a melting point of 210 to 211 °C.
In the case of `O=C(O)CCCOc1ccc(N2CCN(c3ccncc3)CC2)cc1[N+](=O)[O-]` it was 219 to 220 °C.
The molecule `O=C(Nc1ccccc1)c1c[nH]c2c1C(=O)CCC2` yielded a melting point of 225 to 226 °C.
Take `O=C(/C=C/c1ccccc1)OCCOC(=O)NC1(C(=O)O)CC1`: the melting point is 169 to 172 °C.
On to `COC(=O)c1cc(Cl)ncc1[N+](=O)[O-]`, for which the melting point lay within 60.5 to 64.1 °C.
`NS(=O)(=O)c1ccc(-c2noc(-c3cnn4c(C(F)F)cc(-c5ccc(C(F)(F)F)cc5)nc34)n2)s1` had a melting point of 278 °C.

These data come from a melting point compilation (Tetko et al.; mined from patent text by program, amines drawn as free bases though some values may be those of a salt).
